Laboratory results reported in patent US20240336641A1, “3-PYRROLIDINE-INDOLE DERIVATIVES AS SEROTONERGIC PSYCHEDELIC AGENTS FOR THE TREATMENT OF CNS DISORDERS” (Mindset Pharma Inc., priority 2020, published 2024).

Tests used:
[1] = test system: head-twitch response (HTR) in male C57BL6 mice; assay: Mouse head twitch response (HTR); type: in vivo; details: I-2 10 mg/kg SC, M100907 0.5 mg/kg IP pretreatment
Procedure: FIG. 1. is a graph showing the effect of various doses of exemplary compound of Formula I, 1-2, on head-twitch response (HTR) in male C57BL6 mice. The mice were treated with compound I-2 (0.03-10 mg/kg, SC) by SC route (N=6 mice/dose), and the total number of head twitches were recorded over a 1 h period. Data is expressed as mean±SEM. The induction of head twitches elicited by 5-HT2A receptor agonists is believed to represent a behavioural proxy of their psychedelic effects.
Male C57BL6 mice were pretreated with the selective 5-HT2A receptor antagonist M100907 (0.5 mg/kg IP; also known as volinanserin) prior to the administration of exemplary compound of Formula I, 1-2 (10 mg/kg SC). […] Data is expressed as mean±SEM.
Male, C57BL/6J mice (body weight range 20-30 g) were dosed with the appropriate dose of test article, and following a 1-minute pre-treatment time, placed in individual observation chambers. Animals were visually assessed for the incidence head twitches continuously over a 1 hr period. […] Each head twitch was individually counted by a trained observer, and the data expressed as the mean±SEM of 6-10 mice per group. […]
The effect of various doses of exemplary compound of Formula I, 1-2, on head-twitch response (HTR) in male C57BL6 mice were measured. […] Data is expressed as mean±SEM. […]

[2] = In vivo pharmacokinetics in mice (IV and PO); details: male C57BL/6 mice
Procedure: Male C57BL/6 mice (25-30 g) from Charles River Labs were acclimatized for a minimum of 5 days prior to dosing. Body weights will be recorded on the day of dosing.
Animals dosed p.o. were deprived of food overnight and fed ˜2 h following dosing.
(§1) Formulations were administered intravenously (i.v.) via the tail vein or orally (p.o.) by gavage with disposable feeding needles.
(§2) Serial blood samples were collected via tail snip. Terminal blood samples will be collected under isoflurane anesthesia by cardiac puncture.
(§3) All blood samples were transferred into K2EDTA tubes on wet ice and centrifuged within 5 min (3200×g for 5 min at 4° C.) to obtain plasma. Plasma will be stored at −80° C. until analysis.
(§4) • i. Analysis software: Phoenix® WinNonlin® 8.2 (Pharsight, Certara, Mountainview, CA) • ii. Analysis methods: non-compartmental analysis, linear up/log down trapezoidal rule • iii. PK parameters: C0, t1/2, AUC0-last. AUC0-∞, CL, Vss, MRT, tmax(po), Cmax(po), F, as appropriate

[3] = In vivo pharmacokinetics in rats (IV and PO); details: male SD rats
Procedure: as §1, §2, §3, §4

SMILES	effect on head-twitch response (HTR) after pretreatment with selective 5-HT2A antagonist M100907 [1]	biotransformation after administration ([2]; IV (footnote Table 5))	biotransformation after administration ([2]; PO table (footnote Table 6 prints IV))	biotransformation after administration ([3]; IV (footnote Table 7))	biotransformation after administration ([3]; oral (footnote Table 8))
[2H]C([2H])([2H])N1CCC[C@@H]1Cc1c[nH]c2cccc(O)c12 [Compound I-2, (R)-3-((1-(methyl-d3)pyrrolidin-2-yl)methyl)-1H-indol-4-ol]	completely blocked	–	–	–	–
[2H]C([2H])(c1c[nH]c2cccc(OC)c12)[C@H]1CCCN1C([2H])([2H])[2H] [Compound I-39, (R)-4-methoxy-3-((1-(methyl-d3)pyrrolidin-2-yl)methyl-d2)-1H-indole]	–	^(a)I-39 is hydrolysed to I-44 after IV administration	^(a)1-39 is hydrolysed to I-44 after IV administration	^(a)I-39 is hydrolysed to I-44 after IV administration	^(a)I-39 is hydrolysed to I-44 after oral administration
